Values quoted from earlier work in article PMC11012124, “Synthesis of Novel Triazine-Based Chalcones and 8,9-dihydro-7H-pyrimido[4,5-b][1,4]diazepines as Potential Leads in the Search of Anticancer, Antibacterial and Antifungal Agents” (International Journal of Molecular Sciences, 2024).

Key:
Parameters in all cases: method as in earlier work
Settings in all cases: ref https://dtp.cancer.gov/dtpstandard/cancerscreeningdata/index.jsp, read-out: GI50 5-FU (NS 18893); cited from earlier work
NCI-H522 = test system: NCI-H522
HCC-2998 = test system: HCC-2998
HOP-92 = test system: HOP-92
CCRF-CEM = test system: CCRF-CEM
CAKI-1 = test system: CAKI-1
OVCAR-3 = test system: OVCAR-3
HCT-116 = test system: HCT-116
SW-620 = test system: SW-620
HT29 = test system: HT29
MDA-MB-468 = test system: MDA-MB-468
K-562 = test system: K-562
HL-60(TB) = test system: HL-60(TB)
LOX IMVI = test system: LOX IMVI
RXF 393 = test system: RXF 393
SNB-75 = test system: SNB-75
U251 = test system: U251
HCT-15 = test system: HCT-15
KM12 = test system: KM12
MOLT-4 = test system: MOLT-4
IGROV1 = test system: IGROV1
RPMI-8226 = test system: RPMI-8226
MCF7 = test system: MCF7
UO-31 = test system: UO-31
SF-539 = test system: SF-539
SR = test system: SR
SN12C = test system: SN12C

O=c1[nH]cc(F)c(=O)[nH]1 [5-FU, 5-fluorouracil]
GI50 (NCI-H522): 7280 nM | GI50 (HCC-2998): 50 nM | GI50 (HOP-92): 78000 nM | GI50 (CCRF-CEM): 9790 nM | GI50 (CAKI-1): 70 nM | GI50 (OVCAR-3): 20 nM | GI50 (HCT-116): 230 nM | GI50 (SW-620): 930 nM | GI50 (HT29): 180 nM | GI50 (MDA-MB-468): 6610 nM | GI50 (K-562): 3580 nM | GI50 (HL-60(TB)): 2510 nM | GI50 (LOX IMVI): 250 nM | GI50 (RXF 393): 2610 nM | GI50 (SNB-75): 78700 nM | GI50 (U251): 910 nM | GI50 (HCT-15): 110 nM | GI50 (KM12): 210 nM | GI50 (MOLT-4): 350 nM | GI50 (IGROV1): 1220 nM | GI50 (RPMI-8226): 40 nM | GI50 (MCF7): 80 nM | GI50 (UO-31): 1430 nM | GI50 (SF-539): 60 nM | GI50 (SR): 20 nM | GI50 (SN12C): 500 nM
